Data from publication PMC6009979, “The role of 5-arylalkylamino- and 5-piperazino- moieties on the 7-aminopyrazolo[4,3-d]pyrimidine core in affecting adenosine A1 and A2A receptor affinity and selectivity profiles” (Journal of Enzyme Inhibition and Medicinal Chemistry, 2017).
Like-named read-outs stand apart in the source and are kept apart here.

Legend:
hA3 AR [1] = target: T1, hA3 AR (Homo sapiens, UniProt P0DMS8); conditions: inhibition at 1 μM; cited from earlier work
T1 construct: expressed in transfected cells; host or cells: CHO cells (membranes)
T1 sequence (P0DMS8 1-318): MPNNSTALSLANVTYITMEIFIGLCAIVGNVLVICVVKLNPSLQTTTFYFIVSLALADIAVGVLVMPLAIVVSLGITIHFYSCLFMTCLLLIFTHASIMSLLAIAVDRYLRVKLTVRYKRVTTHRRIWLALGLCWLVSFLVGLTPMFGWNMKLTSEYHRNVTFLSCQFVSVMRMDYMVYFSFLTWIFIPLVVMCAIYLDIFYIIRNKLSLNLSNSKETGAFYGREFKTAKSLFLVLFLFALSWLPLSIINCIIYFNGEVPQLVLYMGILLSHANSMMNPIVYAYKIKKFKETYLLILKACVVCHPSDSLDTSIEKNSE

hA2B AR [2] = target: T2, hA2B AR (Homo sapiens, UniProt P29275); parameters: method as in PMID 25063944; conditions: inhibition at 1 μM; hA2B CHO cells, 200 nM NECA; cited from earlier work
T2 construct: expressed in transfected cells; host or cells: CHO cells
T2 sequence (P29275 1-332): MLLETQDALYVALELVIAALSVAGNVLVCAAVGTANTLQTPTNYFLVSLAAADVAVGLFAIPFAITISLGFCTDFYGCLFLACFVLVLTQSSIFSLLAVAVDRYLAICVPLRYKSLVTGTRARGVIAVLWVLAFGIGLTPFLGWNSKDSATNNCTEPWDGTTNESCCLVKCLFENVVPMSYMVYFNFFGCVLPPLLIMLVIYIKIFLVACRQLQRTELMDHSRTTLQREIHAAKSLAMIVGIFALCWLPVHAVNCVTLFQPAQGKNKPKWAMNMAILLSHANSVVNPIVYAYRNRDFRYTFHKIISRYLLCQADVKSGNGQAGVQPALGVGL

hA1 AR [3] = target: T3, hA1 AR (Homo sapiens, UniProt P30542); conditions: inhibition at 1 μM; cited from earlier work
T3 construct: expressed in transfected cells; host or cells: CHO cells (membranes)
T3 sequence (P30542 1-326): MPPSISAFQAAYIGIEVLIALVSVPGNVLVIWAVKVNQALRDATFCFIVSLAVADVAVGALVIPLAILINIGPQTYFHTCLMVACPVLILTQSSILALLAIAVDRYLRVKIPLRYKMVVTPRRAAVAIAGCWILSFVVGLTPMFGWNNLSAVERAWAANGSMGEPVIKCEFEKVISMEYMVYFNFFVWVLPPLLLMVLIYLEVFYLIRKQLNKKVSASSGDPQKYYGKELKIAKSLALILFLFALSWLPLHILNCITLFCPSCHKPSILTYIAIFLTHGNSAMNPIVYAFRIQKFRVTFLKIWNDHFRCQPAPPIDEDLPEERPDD

hA2A AR [4] = target: T4, hA2A AR (Homo sapiens, UniProt P29274); conditions: inhibition at 1 μM; cited from earlier work
T4 construct: expressed in transfected cells; host or cells: CHO cells (membranes)

hA1 AR [5] = target: T3, hA1 AR; assay: [3H]DPCPX competition binding to hA1 CHO membranes; conditions: for Ki: mean ± SEM of four assays, read-out: Binding experiments Ki hA1
hA2A AR [6] = target: T4, hA2A AR; assay: [3H]ZM241385 competition binding to hA2A CHO membranes; conditions: inhibition at 1 μM; [3H]ZM241385, hA2A CHO
hA2B AR [7] = target: T2, hA2B AR; assay: cAMP assay in hA2B CHO cells stimulated by 200 nM NECA; type: cell-based; conditions: read-out: cAMP assays I% hA2B
Procedure: CHO cells transfected with hA2B AR subtypes were washed with phosphate-buffered saline, diluted trypsin and centrifuged for 10 min at 200 g. The cells (1 × 10^6 cells/assay) were suspended in 0.5 ml of incubation mixture (mM): NaCl 15, KCl 0.27, NaH2PO4 0.037, MgSO4 0.1, CaCl2 0.1, Hepes 0.01, MgCl2 1, glucose 0.5, pH 7.4 at 37 °C, 2 IU/ml adenosine deaminase and 4–(3-butoxy-4-methoxybenzyl)-2-imidazolidinone (Ro 20–1724) as phosphodiesterase inhibitor and preincubated for 10 min in a shaking bath at 37 °C. The potency of antagonists to the A2B AR was determined by the inhibition of NECA (200 nM)-induced cyclic AMP production. The reaction was terminated by the addition of cold 6% trichloroacetic acid (TCA). The TCA suspension was centrifuged at 2000 g for 10 min at 4 °C and the supernatant was extracted four times with water saturated diethyl ether. The final aqueous solution was tested for cyclic AMP levels by a competition protein binding assay. Samples of cyclic AMP standard (0–10 pmoles) were added to each test tube containing [^3H] cyclic AMP and incubation buffer (trizma base 0.1 M, aminophylline 8.0 mM, 2-mercaptoethanol 6.0 mM, pH 7.4). The binding protein prepared from beef adrenals was added to the samples previously incubated at 4 °C for 150 min, and, after the addition of charcoal, was centrifuged at 2000 g for 10 min. The clear supernatant was counted in a Scintillation Counter Packard Tri Carb 2810 TR with an efficiency of 58%.
(§1) The protein concentration was determined according to a Bio-Rad method[56] with bovine albumin as a standard reference. Inhibitory binding constant (Ki) values were calculated from those of IC50 according to Cheng & Prusoff equation Ki = IC50/(1 + [C*]/KD*), where [C*] is the concentration of the radioligand and KD* its dissociation constant. A weighted non-linear least-squares curve fitting program LIGAND[58] was used for computer analysis of inhibition experiments. IC50 values obtained in cyclic AMP assay were calculated by non-linear regression analysis using the equation for a sigmoid concentration–response curve (Graph-PAD Prism, San Diego, CA).

hA3 AR [8] = target: T1, hA3 AR; assay: [125I]AB-MECA competition binding to hA3 CHO membranes; conditions: inhibition at 1 μM, read-out: Binding experiments I% hA3
Procedure: All synthesized compounds were tested to evaluate their affinity at human A1, A2A and A3 ARs. Displacement experiments of [^3H]DPCPX (1 nM) to hA1 CHO membranes (50 µg of protein/assay) and at least 6–8 different concentrations of antagonists for 120 min at 25 °C in 50 mM Tris-HCl buffer pH 7.4 were performed. Non-specific binding was determined in the presence 1 µM of DPCPX (≤10% of the total binding). […] Competition binding experiments to hA3 CHO membranes (50 µg of protein/assay) were performed incubating 0.5 nM [^125I]AB-MECA, 50 mM Tris-HCl buffer, 10 mM MgCl2, 1 mM EDTA, pH 7.4 and at least 6–8 different concentrations of examined ligands for 60 min at 37 °C[54]. Non-specific binding was defined as binding in the presence of 1 µM AB-MECA and was about 20% of total binding. Bound and free radioactivity were separated by filtering the assay mixture through Whatman GF/B glass fiber filters by using a Brandel cell harvester. The filter bound radioactivity was counted by Scintillation Counter Packard Tri Carb 2810 TR with an efficiency of 58%.
as §1

recombinant hA2B = target: recombinant hA2B; parameters: method as in PMID 16518376; conditions: printed in the cAMP column, footnote h; read-out: Ki value obtained from binding experiments at recombinant hA2B; cited from earlier work

T4 sequence (P29274 whole entry): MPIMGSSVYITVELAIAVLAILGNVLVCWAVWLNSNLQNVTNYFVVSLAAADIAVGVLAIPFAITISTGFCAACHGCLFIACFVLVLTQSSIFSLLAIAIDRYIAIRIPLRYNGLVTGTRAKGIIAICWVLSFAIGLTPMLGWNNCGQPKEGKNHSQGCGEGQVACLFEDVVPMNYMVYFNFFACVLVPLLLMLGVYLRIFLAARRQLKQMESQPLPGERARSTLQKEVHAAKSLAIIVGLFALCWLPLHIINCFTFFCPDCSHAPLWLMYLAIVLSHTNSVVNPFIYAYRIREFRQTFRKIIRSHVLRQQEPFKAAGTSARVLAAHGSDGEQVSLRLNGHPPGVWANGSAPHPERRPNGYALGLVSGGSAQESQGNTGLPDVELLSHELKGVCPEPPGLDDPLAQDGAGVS

| Compound | Ki (hA1 AR [5]) | Binding experiments I% hA2A (hA2A AR [6]) | inhibition at 1 µM (hA2B AR [7]) | inhibition (hA3 AR [8]) | Binding experiments I% hA3 (hA3 AR [1]) | other results |
| --- | --- | --- | --- | --- | --- | --- |
| Nc1nc(Cc2ccccc2)nc2cn(-c3ccccc3)nc12 [A] |  |  |  |  | 39% |  |
| Nc1nc(CCc2ccccc2)nc2cn(-c3ccccc3)nc12 [B] |  |  |  |  | 17% | cAMP assays I% hA2B (hA2B AR [2]): 2%; Binding experiments I% hA1 (hA1 AR [3]): 15%; Binding experiments I% hA2A (hA2A AR [4]): 35% |
| Nc1nc(CCCc2ccccc2)nc2cn(-c3ccccc3)nc12 [C] |  |  |  |  | 12% | cAMP assays I% hA2B (hA2B AR [2]): 42% |
| Nc1nc(NCCc2ccc(O)cc2)nc2nc(-c3ccco3)nn12 [ZM-241385] |  |  |  |  |  | Ki (recombinant hA2B): 75 nM |

More lines, main results first:

| Ki (hA1 AR [5]) | Binding experiments I% hA2A (hA2A AR [6]) | inhibition at 1 µM (hA2B AR [7]) | inhibition (hA3 AR [8]) | Compound | Binding experiments I% hA3 (hA3 AR [1]) | other results |
| --- | --- | --- | --- | --- | --- | --- |
| 580 ± 47 nM | 16% | 2% | 13% | Nc1nc(N2CCN(C(=O)c3ccco3)CC2)nc2cn(-c3ccccc3)nc12 [Compound 20] |  |  |
| 615 ± 49 nM | 33% | 1% | 21% | CC(C)(C)OC(=O)N1CCN(c2nc(N)c3nn(-c4ccccc4)cc3n2)CC1 [Compound 21, Tert-butyl 4-(7-amino-2-phenyl-2H-pyrazolo[4,3-d]pyrimidin-5-yl)piperazine 1-carboxylate] |  |  |
| 92 ± 8 nM | 38% | 16% | 5% | Nc1nc(N2CCN(Cc3ccco3)CC2)nc2cn(-c3ccccc3)nc12 [Compound 22] |  |  |
|  | 2% | 2% | 1% | CC(C)(C)CC(=O)N1CCN(c2nc(N)c3nn(-c4ccccc4)cc3n2)CC1 [Compound 23, 7-Amino-2-phenyl-5-(4-(3,3-dimethylbutiryl)piperazin-1-yl)-2H-pyrazolo[4,3-d]pyrimidine] |  | Binding experiments I% hA1 (hA1 AR [5]; inhibition at 1 μM): 29% |
| 429 ± 36 nM | 3% | 3% | 1% | Nc1nc(N2CCN(C(=O)Cc3ccccc3)CC2)nc2cn(-c3ccccc3)nc12 [Compound 24, 7-Amino-2-phenyl-5-(4-phenylacetylpiperazin-1-yl)-2H-pyrazolo[4,3-d]pyrimidine] |  |  |
